Data taken from patent US7981903B2, “2-[2-{phenylamino}-1H-pyrrolo[2,3-D]pyrimidin-4-yl)amino] benzamide derivatives as IGF-1R inhibitors for the treatment of cancer” (GlaxoSmithKline LLC, priority 2007, dated 2011).

Key:
[1] = molecular target: ALK (Homo sapiens, UniProt Q9UM73); test: ALK enzyme assay (HTRF); format: biochemical; settings: 0.25 nM ALK, 15.0 μM ATP, values given as pIC50 category
How it was run: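 Final compound range 0.00017 to 10 μM (twelve 1:3 dilutions). Kinase reaction with ATP and biotinylated synthetic peptide runs 120 min at 20° C, stopped with EDTA; phosphotyrosine detected by HTRF after 60 min. Inhibition referenced to DMSO (1%) and EDTA (0.1 M) controls, curve-fitted.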

[2] = tested on: Colo205; test: Inhibition of cell proliferation (CellTiter-Glo or InCell analyzer), Colo205; format: cell-based; settings: Homo sapiens, COLO 205, 72 h / 3 days, values given as IC50 category
How it was run: In one

[3] = molecular target: T1, NIH-3T3 cells overexpressing human IR (Homo sapiens, UniProt P06213); test: IR cellular autophosphorylation (DELFIA); format: cell-based; settings: 2 h compound, insulin 3 ug/ml for 15 minutes, IC50 category
T1 construct: expressed in transfected cells; host or cells: NIH-3T3 (mouse fibroblasts)
How it was run: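 Receptor autophosphorylation measured by DELFIA, capturing IGF-1R or IRβ and detecting with europium anti-pTyr, reported as percent of IGF-1- or insulin-stimulated signal. Compounds (30 uM to 1.5 nM) added 2 h before ligand, then 15 min stimulation (IGF-1 30 ng/ml or insulin 3 ug/ml).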

Chain of ALK (Q9UM73 19-1620): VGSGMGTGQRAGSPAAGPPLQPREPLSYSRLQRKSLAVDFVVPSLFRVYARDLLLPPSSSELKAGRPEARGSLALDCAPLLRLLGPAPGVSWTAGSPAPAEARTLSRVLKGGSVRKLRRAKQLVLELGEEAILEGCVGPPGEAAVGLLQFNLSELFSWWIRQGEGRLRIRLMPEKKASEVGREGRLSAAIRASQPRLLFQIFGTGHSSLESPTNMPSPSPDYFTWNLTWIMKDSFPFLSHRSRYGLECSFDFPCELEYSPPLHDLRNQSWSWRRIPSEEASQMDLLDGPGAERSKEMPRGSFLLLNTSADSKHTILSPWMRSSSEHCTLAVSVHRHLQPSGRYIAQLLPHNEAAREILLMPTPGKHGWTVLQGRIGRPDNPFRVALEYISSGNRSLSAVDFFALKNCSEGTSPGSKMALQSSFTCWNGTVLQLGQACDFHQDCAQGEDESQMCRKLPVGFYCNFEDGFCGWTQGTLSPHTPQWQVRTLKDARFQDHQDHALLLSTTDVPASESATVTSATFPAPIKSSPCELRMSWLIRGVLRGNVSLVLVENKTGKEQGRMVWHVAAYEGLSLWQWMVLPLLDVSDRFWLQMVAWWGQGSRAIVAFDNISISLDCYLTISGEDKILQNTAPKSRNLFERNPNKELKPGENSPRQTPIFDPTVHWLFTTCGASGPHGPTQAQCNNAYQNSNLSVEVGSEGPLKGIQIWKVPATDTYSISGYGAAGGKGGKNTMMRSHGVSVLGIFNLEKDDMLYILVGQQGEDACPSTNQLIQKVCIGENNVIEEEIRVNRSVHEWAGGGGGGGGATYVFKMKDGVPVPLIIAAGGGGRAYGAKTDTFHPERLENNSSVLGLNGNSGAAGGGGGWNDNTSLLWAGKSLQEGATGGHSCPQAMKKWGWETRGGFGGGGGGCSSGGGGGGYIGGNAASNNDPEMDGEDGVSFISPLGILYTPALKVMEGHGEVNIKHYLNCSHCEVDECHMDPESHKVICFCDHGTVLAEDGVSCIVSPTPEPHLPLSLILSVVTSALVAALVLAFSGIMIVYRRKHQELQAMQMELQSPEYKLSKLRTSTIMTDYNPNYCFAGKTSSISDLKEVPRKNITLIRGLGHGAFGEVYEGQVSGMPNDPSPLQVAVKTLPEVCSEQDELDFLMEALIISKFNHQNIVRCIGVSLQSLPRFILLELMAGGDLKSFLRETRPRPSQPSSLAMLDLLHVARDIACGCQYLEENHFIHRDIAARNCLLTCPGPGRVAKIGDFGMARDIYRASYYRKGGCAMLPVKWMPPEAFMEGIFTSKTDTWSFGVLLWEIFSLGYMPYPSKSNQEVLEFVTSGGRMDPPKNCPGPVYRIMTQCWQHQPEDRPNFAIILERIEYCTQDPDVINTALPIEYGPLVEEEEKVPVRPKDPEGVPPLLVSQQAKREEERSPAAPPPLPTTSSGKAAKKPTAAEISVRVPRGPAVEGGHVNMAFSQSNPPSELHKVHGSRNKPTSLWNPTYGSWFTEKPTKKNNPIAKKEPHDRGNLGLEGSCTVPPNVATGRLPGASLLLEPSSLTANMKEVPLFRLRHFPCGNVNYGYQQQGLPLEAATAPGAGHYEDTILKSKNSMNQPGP
T1 sequence (P06213 28-1382): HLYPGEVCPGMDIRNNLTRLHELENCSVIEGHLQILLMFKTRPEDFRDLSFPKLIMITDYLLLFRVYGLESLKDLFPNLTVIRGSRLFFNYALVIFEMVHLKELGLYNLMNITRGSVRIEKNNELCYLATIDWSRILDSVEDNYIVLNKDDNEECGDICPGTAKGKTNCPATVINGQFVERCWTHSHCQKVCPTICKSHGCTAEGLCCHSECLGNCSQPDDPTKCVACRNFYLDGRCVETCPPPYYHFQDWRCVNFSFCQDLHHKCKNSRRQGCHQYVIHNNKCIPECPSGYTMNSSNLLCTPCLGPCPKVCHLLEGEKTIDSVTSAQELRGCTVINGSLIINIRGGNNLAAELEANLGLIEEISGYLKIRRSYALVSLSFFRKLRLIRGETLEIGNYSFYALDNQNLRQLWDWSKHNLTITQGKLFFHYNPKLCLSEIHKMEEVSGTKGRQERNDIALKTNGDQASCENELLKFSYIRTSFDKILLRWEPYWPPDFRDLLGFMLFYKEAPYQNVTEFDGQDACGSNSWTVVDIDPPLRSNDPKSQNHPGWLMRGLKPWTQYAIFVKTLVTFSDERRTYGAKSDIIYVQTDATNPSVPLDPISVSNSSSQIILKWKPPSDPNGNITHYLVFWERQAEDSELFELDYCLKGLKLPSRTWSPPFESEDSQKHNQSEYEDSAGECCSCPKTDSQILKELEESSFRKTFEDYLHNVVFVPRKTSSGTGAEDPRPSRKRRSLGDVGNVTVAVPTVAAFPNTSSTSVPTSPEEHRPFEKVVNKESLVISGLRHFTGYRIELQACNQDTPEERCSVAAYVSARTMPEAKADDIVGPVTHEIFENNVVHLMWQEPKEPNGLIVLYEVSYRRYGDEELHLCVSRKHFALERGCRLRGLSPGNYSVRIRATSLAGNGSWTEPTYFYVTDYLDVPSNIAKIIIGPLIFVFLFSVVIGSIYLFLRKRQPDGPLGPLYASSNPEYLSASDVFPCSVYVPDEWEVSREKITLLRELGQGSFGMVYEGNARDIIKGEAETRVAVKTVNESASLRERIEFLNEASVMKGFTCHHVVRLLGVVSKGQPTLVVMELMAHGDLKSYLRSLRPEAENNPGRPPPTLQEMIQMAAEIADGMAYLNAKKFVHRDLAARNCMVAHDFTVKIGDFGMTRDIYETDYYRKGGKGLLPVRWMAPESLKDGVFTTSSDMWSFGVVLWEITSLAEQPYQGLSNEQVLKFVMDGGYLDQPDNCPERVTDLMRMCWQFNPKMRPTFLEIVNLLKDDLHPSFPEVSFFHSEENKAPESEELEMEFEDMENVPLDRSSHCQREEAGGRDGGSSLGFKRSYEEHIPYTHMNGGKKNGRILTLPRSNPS

SMILES	IC50 [1]	IC50 [2]	IC50 [3]
COc1ccc(N2CCN(C(C)C)CC2)cc1Nc1nc(Nc2ccccc2C(N)=O)c2cc[nH]c2n1 [Example 10, 2-[(2-{[5-[4-(1-methylethyl)-1-piperazinyl]-2-(methyloxy)phenyl]amino}-1H-pyrrolo[2,3-d]pyrimidin-4-yl)amino]benzamide]	1.26 to 3.98 nM	< 250 nM	100 to 500 nM
COc1cc(N2CCC(N3CC[C@H](F)C3)CC2)ccc1Nc1nc(Nc2cccc(F)c2C(N)=O)c2cc[nH]c2n1 [Example 43, 2-fluoro-6-[(2-{[4-{4-[(3S)-3-fluoro-1-pyrrolidinyl]-1-piperidinyl}-2-(methyloxy)phenyl]amino}-1H-pyrrolo[2,3-d]pyrimidin-4-yl)amino]benzamide]	1.26 to 3.98 nM	250 to 1000 nM	100 to 500 nM
COc1cc(N2CCC(N3CCOCC3)CC2)ccc1Nc1nc(Nc2ccc(F)cc2C(N)=O)c2cc[nH]c2n1 [Example 59, 5-fluoro-2-{[2-({2-(methyloxy)-4-[4-(4-morpholinyl)-1-piperidinyl]phenyl}amino)-1H-pyrrolo[2,3-d]pyrimidin-4-yl]amino}benzamide]	0.251 to 1 nM	< 250 nM	
COc1cc(N2CCC(N3CCCCC3)CC2)ccc1Nc1nc(Nc2cc(F)c(F)cc2C(N)=O)c2cc[nH]c2n1 [Example 100, 2-[(2-{[4-(1,4′-bipiperidin-1′-yl)-2-(methyloxy)phenyl]amino}-1H-pyrrolo[2,3-d]pyrimidin-4-yl)amino]-4,5-difluorobenzamide]	0.251 to 1 nM	< 250 nM	
COc1cc(N2CCOCC2)ccc1Nc1nc(Nc2cc(F)c(F)cc2C(N)=O)c2cc[nH]c2n1 [Example 104, 4,5-difluoro-2-[(2-{[2-(methyloxy)-4-(4-morpholinyl)phenyl]amino}-1H-pyrrolo[2,3-d]pyrimidin-4-yl)amino]benzamide]	1.26 to 3.98 nM	> 1000 nM	

Next, values leading:

IC50 [1]	IC50 [2]	IC50 [3]	SMILES
1.26 to 3.98 nM	< 250 nM		COc1ccc(N2CCN(C)CC2)cc1Nc1nc(Nc2ccccc2C(N)=O)c2cc[nH]c2n1 [Example 9, 2-[(2-{[2-(methyloxy)-5-(4-methyl-1-piperazinyl)phenyl]amino}-1H-pyrrolo[2,3-d]pyrimidin-4-yl)amino]benzamide]
1.26 to 3.98 nM	< 250 nM		CN(C)CC(=O)Nc1ccc(Cl)c(Nc2nc(Nc3ccccc3C(N)=O)c3cc[nH]c3n2)c1 [Example 18, 2-{[2-({2-chloro-5-[(N,N-dimethylglycyl)amino]phenyl}amino)-1H-pyrrolo[2,3-d]pyrimidin-4-yl]amino}benzamide]
1.26 to 3.98 nM	< 250 nM	100 to 500 nM	COc1cc(N2CCOC[C@@H]2C)ccc1Nc1nc(Nc2cccc(F)c2C(N)=O)c2cc[nH]c2n1 [Example 49, 2-fluoro-6-[(2-{[4-[(3S)-3-methyl-4-morpholinyl]-2-(methyloxy)phenyl]amino}-1H-pyrrolo[2,3-d]pyrimidin-4-yl)amino]benzamide]
1.26 to 3.98 nM	< 250 nM	< 100 nM	COc1cc(N2CCOC[C@@H]2C)ccc1Nc1nc(Nc2ccc(F)cc2C(N)=O)c2cc[nH]c2n1 [Example 61, 5-fluoro-2-[(2-{[4-[(3S)-3-methyl-4-morpholinyl]-2-(methyloxy)phenyl]amino}-1H-pyrrolo[2,3-d]pyrimidin-4-yl)amino]benzamide]
0.251 to 1 nM	< 250 nM		COc1cc(N2CCN(C(C)C)CC2)ccc1Nc1nc(Nc2ccc(Br)cc2C(N)=O)c2cc[nH]c2n1 [Example 68, 5-bromo-2-[(2-{[4-[4-(1-methylethyl)-1-piperazinyl]-2-(methyloxy)phenyl]amino}-1H-pyrrolo[2,3-d]pyrimidin-4-yl)amino]benzamide]
0.251 to 1 nM	250 to 1000 nM		COc1cc(N2CCC(O)CC2)ccc1Nc1nc(Nc2cc(F)c(F)cc2C(N)=O)c2cc[nH]c2n1 [Example 99]
